Molecules are shown by their SMILES.

Assay type in all cases: cell-based, human
One assay has as its system RPMI-8226 (Leukemia). Description: NCI one dose, RPMI-8226. The note with it: RPMI-8226, 1.00E-5 Molar one dose. On the procedure:
(§1) 3.4. Cell Proliferation Assay
(§2) Selected compounds were tested on a panel of 60 human cancer cell lines at the National Cancer Institute (NCI), Germantown, MD, USA. The cytotoxicity studies were conducted using a 48 h exposure protocol using the sulfo-rhodamine B assay.

Another assay relates to SF-295 (CNS Cancer). Description: NCI one dose, SF-295. The conditions noted are these: SF-295, 1.00E-5 Molar one dose. On the procedure:
as §1, §2

Another assay concerns MDA-MB-435 (Melanoma). Description: NCI one dose, MDA-MB-435. The conditions noted are these: MDA-MB-435, 1.00E-5 Molar one dose. On the procedure:
as §1, §2

The next assay relates to SN12C (Renal Cancer). Description: NCI one dose, SN12C. The conditions noted are these: 1.00E-5 Molar one dose. On the procedure: as §1, §2
The test system of another assay is DU-145 (Prostate Cancer). Description: NCI one dose, DU-145. The conditions noted are these: DU-145, 1.00E-5 Molar one dose. On the procedure:
as §1, §2

In the next assay the test system is MCF7 (Breast Cancer). Description: NCI one dose, MCF7. The conditions noted are these: MCF7, 1.00E-5 Molar one dose. On the procedure: as §1, §2
Another assay has as its system HL-60(TB) (Leukemia). Briefly: NCI one dose, HL-60(TB). The note with it: 1.00E-5 Molar one dose. On the procedure:
as §1, §2

Assay [1] concerns NCI-H226 (Non-Small Cell Lung Cancer). Briefly: NCI one dose, NCI-H226. The conditions noted are these: NCI-H226, 1.00E-5 Molar one dose. On the procedure:
as §1, §2

With `COc1ccc(CNC(=O)[C@@H]2CS[C@H]3c4ccccc4C(=O)N23)cc1OC` [4aI], the “Growth Percent” value worked out at 99.43% in the assay with RPMI-8226 (Leukemia); 101.16% in the assay on SF-295 (CNS Cancer); 107.42% in the assay with MDA-MB-435 (Melanoma); 100.89% in the assay on SN12C (Renal Cancer); 107.46% in the assay on DU-145 (Prostate Cancer); 99.04% in the assay with MCF7 (Breast Cancer).
With `O=C(NCc1ccccc1C(F)(F)F)[C@@H]1CS[C@H]2c3ccccc3C(=O)N12` [4aC], the “Growth Percent” value is 101.08% in the assay with HL-60(TB) (Leukemia); 87.69% with RPMI-8226 (Leukemia); 95.46% in assay [1]; 94.85% in the assay on SF-295 (CNS Cancer); 102.87% in the assay on MDA-MB-435 (Melanoma); 101.45% in the assay on SN12C (Renal Cancer). Moreover, the “Growth Percent” value was 107.34% in the assay on DU-145 (Prostate Cancer) and 90.35% with MCF7 (Breast Cancer).
As to `O=C(NCc1cccc(C(F)(F)F)c1)[C@@H]1CS[C@H]2c3ccccc3C(=O)N12` [4aD], the “Growth Percent” value in the assay on HL-60(TB) (Leukemia) is on record as 96.47%; in the assay on RPMI-8226 (Leukemia), 94.54%; in assay [1] it was 100.68%; in the assay with SF-295 (CNS Cancer), 95.03%; in the assay on MDA-MB-435 (Melanoma), 107.10%; with SN12C (Renal Cancer) it was 98.14%. In addition, the “Growth Percent” value is recorded as 110.52% in the assay with DU-145 (Prostate Cancer) and 91.11% with MCF7 (Breast Cancer).
As for `COc1cccc(CNC(=O)[C@@H]2CS[C@@]3(C)c4ccccc4C(=O)N23)c1` [4bE], the “Growth Percent” value in the assay on RPMI-8226 (Leukemia) turned out to be 95.74%; in the assay on SF-295 (CNS Cancer), 97.61%; in the assay on MDA-MB-435 (Melanoma), 98.34%; in the assay on SN12C (Renal Cancer), 101.62%; in the assay on DU-145 (Prostate Cancer), 106.55%; with MCF7 (Breast Cancer), 89.13%.
Turning to `COc1cc(CNC(=O)[C@@H]2CS[C@@]3(C)c4ccccc4C(=O)N23)cc(OC)c1OC` [4bJ], the “Growth Percent” value was 90.22% with RPMI-8226 (Leukemia); 103.92% with SF-295 (CNS Cancer); 104.68% in the assay on MDA-MB-435 (Melanoma); 91.58% in the assay with SN12C (Renal Cancer); 108.72% in the assay with DU-145 (Prostate Cancer); 93.75% with MCF7 (Breast Cancer).
On to `C[C@@]12SC[C@@H](C(=O)NCc3ccc(Cl)cc3Cl)N1C(=O)c1ccccc12` [4bH], for which the “Growth Percent” value was found to be 86.31% in the assay with RPMI-8226 (Leukemia); 98.60% in the assay on SF-295 (CNS Cancer); 102.36% in the assay on MDA-MB-435 (Melanoma); 97.63% with SN12C (Renal Cancer); 109.42% in the assay with DU-145 (Prostate Cancer); 89.35% with MCF7 (Breast Cancer).
On to `COc1ccc(CNC(=O)[C@@H]2CS[C@@]3(C)c4ccccc4C(=O)N23)cc1OC` [4bI], for which the “Growth Percent” value with RPMI-8226 (Leukemia) was 81.37%; in the assay on SF-295 (CNS Cancer), 102.29%; with MDA-MB-435 (Melanoma), 105.24%; in the assay with SN12C (Renal Cancer) it was 96.04%; in the assay on DU-145 (Prostate Cancer) it was 103.50%; in the assay on MCF7 (Breast Cancer) it was 87.17%.
On to `C[C@@]12SC[C@@H](C(=O)NCc3ccccc3)N1C(=O)c1ccccc12` [4bA], for which the “Growth Percent” value was 104.44% in the assay with RPMI-8226 (Leukemia); 98.04% in the assay on SF-295 (CNS Cancer); 101.35% with MDA-MB-435 (Melanoma); 95.20% in the assay with SN12C (Renal Cancer); 110.52% with DU-145 (Prostate Cancer); 96.64% in the assay with MCF7 (Breast Cancer).
In the case of `COc1cccc(CNC(=O)[C@@H]2CS[C@H]3c4ccccc4C(=O)N23)c1` [4aE], the “Growth Percent” value with RPMI-8226 (Leukemia) was determined as 101.67%; in the assay with SF-295 (CNS Cancer), 99.74%; in the assay on MDA-MB-435 (Melanoma), 107.01%; with SN12C (Renal Cancer) it was 105.19%; in the assay with DU-145 (Prostate Cancer) it was 104.21%; with MCF7 (Breast Cancer), 98.52%.
As to `O=C(NCc1ccc(Cl)cc1Cl)[C@@H]1CS[C@H]2c3ccccc3C(=O)N12` [4aH], the “Growth Percent” value in the assay with HL-60(TB) (Leukemia) is listed as 93.16%; in the assay with RPMI-8226 (Leukemia), 80.68%; in assay [1], 95.83%; in the assay with SF-295 (CNS Cancer), 95.60%; in the assay with MDA-MB-435 (Melanoma) it was 100.39%; in the assay on SN12C (Renal Cancer) it was 98.06%. Also, the results for the “Growth Percent” value in the assay on DU-145 (Prostate Cancer) and in the assay with MCF7 (Breast Cancer) were 109.93% and 94.95%, respectively.
For the compound `C[C@@]12SC[C@@H](C(=O)NCc3cccc(C(F)(F)F)c3)N1C(=O)c1ccccc12` [4bD], the “Growth Percent” value was determined as 85.05% in the assay with RPMI-8226 (Leukemia); 92.24% in the assay with SF-295 (CNS Cancer); 102.18% with MDA-MB-435 (Melanoma); 93.35% in the assay with SN12C (Renal Cancer); 108.47% with DU-145 (Prostate Cancer); 85.93% with MCF7 (Breast Cancer).
As to `C[C@@]12SC[C@@H](C(=O)NCc3ccccc3Br)N1C(=O)c1ccccc12` [4bB], the “Growth Percent” value in the assay on RPMI-8226 (Leukemia) is 91.24%; in the assay with SF-295 (CNS Cancer), 92.26%; in the assay on MDA-MB-435 (Melanoma), 96.92%; in the assay with SN12C (Renal Cancer) it was 89.32%; with DU-145 (Prostate Cancer), 101.37%; in the assay with MCF7 (Breast Cancer), 87.26%.
In the case of `C[C@@]12SC[C@@H](C(=O)NCc3ccccc3C(F)(F)F)N1C(=O)c1ccccc12` [4bC], the “Growth Percent” value was 87.02% in the assay on RPMI-8226 (Leukemia); 93.93% in the assay on SF-295 (CNS Cancer); 98.98% in the assay on MDA-MB-435 (Melanoma); 94.74% with SN12C (Renal Cancer); 102.05% in the assay with DU-145 (Prostate Cancer); 90.83% with MCF7 (Breast Cancer).
For `COc1ccc(CNC(=O)[C@@H]2CS[C@@]3(C)c4ccccc4C(=O)N23)cc1` [4bF], the “Growth Percent” value in the assay with RPMI-8226 (Leukemia) is reported as 88.87%; in the assay with SF-295 (CNS Cancer) it was 93.44%; in the assay on MDA-MB-435 (Melanoma) it was 102.01%; in the assay with SN12C (Renal Cancer), 101.88%; in the assay on DU-145 (Prostate Cancer) it was 105.22%; with MCF7 (Breast Cancer), 90.37%.
As for `O=C(NCc1ccccc1)[C@@H]1CS[C@H]2c3ccccc3C(=O)N12` [4aA], the “Growth Percent” value in the assay on HL-60(TB) (Leukemia) was 102.43%; in the assay on RPMI-8226 (Leukemia) it was 105.32%; in assay [1], 86.94%; with SF-295 (CNS Cancer), 99.96%; with MDA-MB-435 (Melanoma), 106.84%; in the assay with SN12C (Renal Cancer), 98.99%. The results for the “Growth Percent” value in the assay with DU-145 (Prostate Cancer) and in the assay with MCF7 (Breast Cancer) were 111.90% and 87.71%, respectively.
Take `COc1ccc(CNC(=O)[C@@H]2CS[C@H]3c4ccccc4C(=O)N23)cc1` [4aF]: the “Growth Percent” value in the assay on HL-60(TB) (Leukemia) was 97.30%; in the assay on RPMI-8226 (Leukemia) it was 101.90%; in assay [1], 101.53%; in the assay with SF-295 (CNS Cancer), 95.57%; in the assay on MDA-MB-435 (Melanoma) it was 114.08%; with SN12C (Renal Cancer), 110.21%. Moreover, the “Growth Percent” value with DU-145 (Prostate Cancer) was found to be 116.46%; in the assay on MCF7 (Breast Cancer), 85.78%.
Turning to `COc1ccccc1CNC(=O)[C@@H]1CS[C@@]2(C)c3ccccc3C(=O)N12` [4bG], the “Growth Percent” value in the assay on RPMI-8226 (Leukemia) turned out to be 96.98%; in the assay with SF-295 (CNS Cancer), 99.22%; with MDA-MB-435 (Melanoma), 103.94%; with SN12C (Renal Cancer), 107.44%; in the assay with DU-145 (Prostate Cancer) it was 107.06%; with MCF7 (Breast Cancer), 92.90%.
For `COc1cc(CNC(=O)[C@@H]2CS[C@H]3c4ccccc4C(=O)N23)cc(OC)c1OC` [4aJ], the “Growth Percent” value in the assay with HL-60(TB) (Leukemia) came to 96.47%; in the assay with RPMI-8226 (Leukemia), 95.00%; in assay [1], 97.62%; in the assay with SF-295 (CNS Cancer), 107.19%; with MDA-MB-435 (Melanoma), 106.49%; in the assay on SN12C (Renal Cancer), 99.01%. The results for the “Growth Percent” value in the assay on DU-145 (Prostate Cancer) and in the assay with MCF7 (Breast Cancer) were 113.37% and 104.04%, respectively.
Regarding `COc1ccccc1CNC(=O)[C@@H]1CS[C@H]2c3ccccc3C(=O)N12` [4aG], the “Growth Percent” value in the assay on RPMI-8226 (Leukemia) is 102.98%; with SF-295 (CNS Cancer), 100.33%; in the assay with MDA-MB-435 (Melanoma), 110.28%; with SN12C (Renal Cancer) it was 110.50%; in the assay on DU-145 (Prostate Cancer), 106.12%; in the assay with MCF7 (Breast Cancer), 102.38%.

For the origin of these results see PMC11855478, “Bicyclic N,S-Acetals Containing Fused Cysteine-Amide System as New Heterocyclic Class Targeting Human Farnesyltransferase (FTase-h)” (International Journal of Molecular Sciences, 2025).
